Results taken from US20240246942A1, “KINASE INHIBITORS FOR THE TREATMENT OF NEURODEGENERATIVE DISEASES” (priority 2020, published 2024).
Like-named read-outs stand apart in the source and are kept apart here.

Experiments:
JNK3α1 = JNK3α1 (Homo sapiens, UniProt P53779); format: biochemical
Protocol: (§1) A 10-point titration of all compounds was carried out in 3-fold dilutions from 10 μM to 0.5 nM.

JNK1 = JNK1 (Homo sapiens, UniProt P45983); experiment: JNK1 homogeneous time-resolved fluorescence enzyme inhibition assay; format: biochemical; conditions: for R: ratio of IC50 values of JNK1 over JNK3: isoform selectivity against JNK1
Protocol: as §1

p38α = p38α (Homo sapiens, UniProt Q16539); experiment: p38 enzyme inhibition assay; conditions: mean of ≥2 experiments; read-out: Biochemical inhibition IC50 p38α
JNK2 = JNK2 (Homo sapiens, UniProt P45984); experiment: JNK2 homogeneous time-resolved fluorescence enzyme inhibition assay; format: biochemical; conditions: for R: ratio of IC50 values of JNK2 over JNK3: isoform selectivity against JNK2; for IC50: mean of ≥2 experiments, read-out: Biochemical inhibition IC50 JNK2
Protocol: as §1

SHSY5Y cells = experiment: MTT cytotoxicity assay; format: cell-based; set-up: dose or concentration left out as unconfirmed; conditions: 48 hrs, average of ≥2 experiments;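 further: compounds tested at 10 µM final concentration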
Protocol: A day before the assay, cells were plated at 50,000/well in 96 well plates in the culture medium. […] After the incubation, cells were subjected to MTT assay using Vybrant MTT Cell Proliferation kit as directed by the vendor (Life Technologies).

CYP1A2 = target: T1, CYP1A2 (Homo sapiens, UniProt P05177); experiment: P450 cocktail inhibition assay, CYP1A2; format: in vitro ADME; conditions: at 10 μM
T1 sequence (P05177 1-516): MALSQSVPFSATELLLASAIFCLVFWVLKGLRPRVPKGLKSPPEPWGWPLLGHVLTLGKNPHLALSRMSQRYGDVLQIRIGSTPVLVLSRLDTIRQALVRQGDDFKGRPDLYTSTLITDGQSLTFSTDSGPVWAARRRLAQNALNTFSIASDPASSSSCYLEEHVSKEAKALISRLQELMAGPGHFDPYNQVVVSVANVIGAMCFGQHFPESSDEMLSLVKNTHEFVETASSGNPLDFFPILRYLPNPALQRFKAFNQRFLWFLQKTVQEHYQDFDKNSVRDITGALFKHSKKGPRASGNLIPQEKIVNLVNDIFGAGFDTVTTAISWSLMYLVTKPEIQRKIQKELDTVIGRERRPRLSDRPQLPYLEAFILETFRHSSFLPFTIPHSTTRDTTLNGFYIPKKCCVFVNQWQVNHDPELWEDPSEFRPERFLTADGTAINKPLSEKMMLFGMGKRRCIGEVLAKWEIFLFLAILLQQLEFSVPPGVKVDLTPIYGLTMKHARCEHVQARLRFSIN
Protocol: (§2) P450s inhibition for four major isoforms are evaluated using a cocktail inhibition assay where the metabolism of specific marker substrate (CYP1A2 phenaceten […] to acetaminophen); CYP2C9, tolbutamide hydroxylation to hydrocytolbutamide; CYP2D6, bufuralol hydroxylation to […]; and CYP3A4, midazolam hydroxylation to 1′-Hydroxymidazolam) in the presence or absence of 10 TM probe compound is evaluated. The concentration of each marker substrate is approximately its Km. […] Specific inhibitors for each isoform are included in each run to validate the system.

CYP2C9 = CYP2C9 (Homo sapiens, UniProt P11712); experiment: P450 cocktail inhibition assay, CYP2C9; format: in vitro ADME; conditions: at 10 μM
Protocol: as §2

CYP2D6 = CYP2D6 (Homo sapiens, UniProt P10635); experiment: P450 cocktail inhibition assay, CYP2D6; format: in vitro ADME; conditions: at 10 μM
Protocol: as §2

CYP3A4 = CYP3A4 (Homo sapiens, UniProt P08684); experiment: P450 cocktail inhibition assay, CYP3A4; format: in vitro ADME; conditions: at 10 μM
Protocol: as §2

[1] = Microsomal stability, human; format: in vitro ADME; conditions: human microsomes
[2] = Microsomal stability, mouse; format: in vitro ADME; conditions: mouse microsomes
[3] = mean of ≥2 experiments, read-out: Biochemical inhibition IC50 JNK3
[4] = mean of ≥2 experiments, read-out: Biochemical inhibition IC50 JNK1

JNK1, sequence (P45983 whole entry, canonical isoform): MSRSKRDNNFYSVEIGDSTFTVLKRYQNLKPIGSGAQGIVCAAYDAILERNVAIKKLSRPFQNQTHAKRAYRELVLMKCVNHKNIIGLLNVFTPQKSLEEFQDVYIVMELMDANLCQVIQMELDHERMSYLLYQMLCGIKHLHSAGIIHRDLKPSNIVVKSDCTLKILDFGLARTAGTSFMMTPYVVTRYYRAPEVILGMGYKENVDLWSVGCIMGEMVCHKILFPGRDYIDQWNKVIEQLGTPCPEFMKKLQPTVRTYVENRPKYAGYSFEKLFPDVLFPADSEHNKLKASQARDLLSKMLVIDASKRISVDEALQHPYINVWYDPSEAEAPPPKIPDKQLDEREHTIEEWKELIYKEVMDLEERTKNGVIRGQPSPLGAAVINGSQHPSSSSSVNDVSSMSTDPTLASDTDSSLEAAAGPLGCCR
JNK2, sequence (P45984 whole entry, canonical isoform): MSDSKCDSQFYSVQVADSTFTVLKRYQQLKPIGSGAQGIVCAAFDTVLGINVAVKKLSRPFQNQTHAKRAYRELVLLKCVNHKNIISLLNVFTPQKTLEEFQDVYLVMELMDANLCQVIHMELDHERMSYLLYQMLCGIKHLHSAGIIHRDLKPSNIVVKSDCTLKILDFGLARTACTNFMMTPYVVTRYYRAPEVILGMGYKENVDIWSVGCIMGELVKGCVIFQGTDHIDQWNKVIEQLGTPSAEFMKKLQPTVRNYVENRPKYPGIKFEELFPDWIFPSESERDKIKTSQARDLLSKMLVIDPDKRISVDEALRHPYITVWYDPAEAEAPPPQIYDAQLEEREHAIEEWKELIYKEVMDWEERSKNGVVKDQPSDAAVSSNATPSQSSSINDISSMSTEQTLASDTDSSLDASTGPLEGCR
CYP3A4, sequence (P08684 whole entry): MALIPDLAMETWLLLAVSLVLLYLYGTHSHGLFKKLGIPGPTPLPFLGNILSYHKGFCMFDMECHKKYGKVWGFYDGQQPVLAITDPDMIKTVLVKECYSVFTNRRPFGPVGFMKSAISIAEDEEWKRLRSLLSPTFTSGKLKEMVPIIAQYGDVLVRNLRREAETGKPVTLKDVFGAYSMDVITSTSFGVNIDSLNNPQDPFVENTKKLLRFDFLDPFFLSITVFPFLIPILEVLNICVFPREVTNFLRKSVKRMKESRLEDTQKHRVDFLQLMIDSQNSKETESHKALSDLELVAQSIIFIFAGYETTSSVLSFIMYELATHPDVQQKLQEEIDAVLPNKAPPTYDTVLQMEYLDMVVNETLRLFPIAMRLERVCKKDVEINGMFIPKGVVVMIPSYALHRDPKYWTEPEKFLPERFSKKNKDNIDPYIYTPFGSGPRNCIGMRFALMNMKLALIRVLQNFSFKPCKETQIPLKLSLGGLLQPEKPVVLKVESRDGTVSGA
CYP2C9, sequence (P11712 whole entry): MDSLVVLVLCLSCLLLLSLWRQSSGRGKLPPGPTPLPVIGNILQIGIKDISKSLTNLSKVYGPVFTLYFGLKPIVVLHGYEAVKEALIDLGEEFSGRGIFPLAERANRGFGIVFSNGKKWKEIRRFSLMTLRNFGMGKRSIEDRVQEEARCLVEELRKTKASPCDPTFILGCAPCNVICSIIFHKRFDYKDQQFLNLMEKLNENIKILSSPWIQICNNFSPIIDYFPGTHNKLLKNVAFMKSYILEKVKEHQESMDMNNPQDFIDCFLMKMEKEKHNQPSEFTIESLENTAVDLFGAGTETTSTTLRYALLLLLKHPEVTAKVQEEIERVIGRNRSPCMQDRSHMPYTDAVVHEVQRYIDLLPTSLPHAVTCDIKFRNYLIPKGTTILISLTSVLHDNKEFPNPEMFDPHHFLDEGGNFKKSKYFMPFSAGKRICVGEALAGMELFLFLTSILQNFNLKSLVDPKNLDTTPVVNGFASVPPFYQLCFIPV
CYP2D6, sequence (P10635 whole entry): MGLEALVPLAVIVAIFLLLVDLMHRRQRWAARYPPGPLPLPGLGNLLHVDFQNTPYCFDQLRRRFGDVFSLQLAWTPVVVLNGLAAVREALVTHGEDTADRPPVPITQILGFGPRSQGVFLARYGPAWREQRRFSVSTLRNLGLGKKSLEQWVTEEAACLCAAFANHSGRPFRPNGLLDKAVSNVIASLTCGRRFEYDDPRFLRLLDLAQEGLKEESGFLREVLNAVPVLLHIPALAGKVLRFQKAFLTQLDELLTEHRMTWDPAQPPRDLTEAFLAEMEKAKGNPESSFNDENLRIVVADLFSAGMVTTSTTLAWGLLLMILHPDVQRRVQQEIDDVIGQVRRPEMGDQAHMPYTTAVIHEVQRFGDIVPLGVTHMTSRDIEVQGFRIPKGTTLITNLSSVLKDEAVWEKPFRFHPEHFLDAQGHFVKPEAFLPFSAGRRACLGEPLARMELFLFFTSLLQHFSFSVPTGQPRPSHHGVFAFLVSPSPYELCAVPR
JNK3α1, sequence (P53779 1-422 isoform P53779-2): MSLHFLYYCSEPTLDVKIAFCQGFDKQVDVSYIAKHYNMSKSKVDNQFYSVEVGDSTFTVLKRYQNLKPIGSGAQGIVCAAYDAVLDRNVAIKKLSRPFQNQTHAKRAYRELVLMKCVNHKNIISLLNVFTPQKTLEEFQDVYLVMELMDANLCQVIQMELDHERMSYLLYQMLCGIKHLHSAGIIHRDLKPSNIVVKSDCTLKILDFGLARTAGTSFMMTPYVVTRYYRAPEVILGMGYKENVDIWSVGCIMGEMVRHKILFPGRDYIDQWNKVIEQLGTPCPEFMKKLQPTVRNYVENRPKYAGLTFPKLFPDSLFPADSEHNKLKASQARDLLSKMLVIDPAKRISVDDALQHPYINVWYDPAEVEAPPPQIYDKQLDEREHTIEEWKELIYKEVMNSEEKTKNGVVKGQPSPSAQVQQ
p38α, sequence (Q16539 whole entry, canonical isoform): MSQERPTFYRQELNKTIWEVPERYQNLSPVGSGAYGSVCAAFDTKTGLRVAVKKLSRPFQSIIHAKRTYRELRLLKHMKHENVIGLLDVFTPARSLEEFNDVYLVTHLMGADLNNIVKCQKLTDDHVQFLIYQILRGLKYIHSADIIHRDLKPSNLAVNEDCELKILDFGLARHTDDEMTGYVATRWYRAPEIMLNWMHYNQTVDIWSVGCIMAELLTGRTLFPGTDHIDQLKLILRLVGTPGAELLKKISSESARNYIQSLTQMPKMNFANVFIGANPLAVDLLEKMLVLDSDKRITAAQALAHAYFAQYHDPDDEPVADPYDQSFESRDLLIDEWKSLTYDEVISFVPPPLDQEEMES

Structure (SMILES): O=C(Nc1cnn(-c2nc(C(=O)NC3CNC3)cs2)c1)Nc1ccccc1Cl [Compound 3, N-(azetidin-3-yl)-2-(4-(3-(2-chlorophenyl)ureido)-1H-pyrazol-1-yl)thiazole-4-carboxamide]
- inhibition of JNK3 (JNK3α1; in words, FIG. 3): no inhibition
- inhibition of JNK1 (JNK1; in words, FIG. 3): no inhibition

Structure (SMILES): O=C(Nc1cnn(-c2ccc(C(=O)NC3CNC3)s2)c1)Nc1ccccc1Cl [Compound 4, N-(azetidin-3-yl)-5-(4-(3-(2-chlorophenyl)ureido)-1H-pyrazol-1-yl)thiophene-2-carboxamide]
- IC50 (JNK3α1; [3]): 800 nM

Structure (SMILES): O=C(Nc1cnn(-c2cc(C(=O)NC3CNC3)cs2)c1)Nc1ccccc1Cl [Compound 5, N-(azetidin-3-yl)-5-(4-(3-(2-chlorophenyl)ureido)-1H-pyrazol-1-yl)thiophene-3-carboxamide]
- IC50 (JNK3α1; [3]): 200 nM

Structure (SMILES): O=C(Nc1cnn(-c2csc(C(=O)NC3CNC3)c2)c1)Nc1ccccc1Cl [Compound 6, N-(azetidin-3-yl)-4-(4-(3-(2-chlorophenyl)ureido)-1H-pyrazol-1-yl)thiophene-2-carboxamide]
- IC50 (JNK3α1; [3]): 50 nM
- isoform selectivity against JNK1 (JNK1; JNK3 over JNK1, text): 72 fold
- R: ratio of IC50 values of JNK1 over JNK3 (JNK1): 72
- IC50 (JNK1; [4]): 3600 nM
- IC50 (p38α): > 20000 nM

Structure (SMILES): CNC(=O)c1cc(-n2cc(NC(=O)Nc3ccccc3Cl)cn2)cs1 [Compound 7, 4-(4-(3-(2-chlorophenyl)ureido)-1H-pyrazol-1-yl)-N-methylthiophene-2-carboxamide]
- IC50 (JNK1): > 20000 nM
- IC50 (p38α): > 20000 nM

Structure (SMILES): O=C(Nc1cnn(-c2csc(C(=O)NC3CC3)c2)c1)Nc1ccccc1Cl [Compound 8, 4-(4-(3-(2-chlorophenyl)ureido)-1H-pyrazol-1-yl)-N-cyclopropylthiophene-2-carboxamide]
- IC50 (JNK3α1; [3]): 80 nM
- R: ratio of IC50 values of JNK1 over JNK3 (JNK1): 93
- IC50 (JNK1; [4]): 7400 nM
- isoform selectivity against JNK2 vs JNK3 (JNK2): around 40 folds
- R: ratio of IC50 values of JNK2 over JNK3 (JNK2): 40
- IC50 (JNK2): 3200 nM
- IC50 (p38α): > 20000 nM
- MTT cell viability (SHSY5Y cells): 103%
- CYP-450 % inh. 1A2 (CYP1A2): −2%
- CYP-450 % inh. 2C9 (CYP2C9): −4%
- CYP-450 % inh. 2D6 (CYP2D6): −29%
- CYP-450 % inh. 3A4 (CYP3A4): −45%
- Mic. stability t1/2 Human [1]: 49 min
- Mic. stability t1/2 Mouse [2]: 35 min

Structure (SMILES): O=C(Nc1cnn(-c2csc(C(=O)N[C@@H]3CCNC3)c2)c1)Nc1ccccc1Cl [Compound 9, (R)-4-(4-(3-(2-chlorophenyl)ureido)-1H-pyrazol-1-yl)-N-(pyrrolidin-3-yl)thiophene-2-carboxamide]
- IC50 (JNK3α1; [3]): 132 nM
- IC50 (JNK1; [4]): 5900 nM

Structure (SMILES): CN1CC[C@@H](NC(=O)c2cc(-n3cc(NC(=O)Nc4ccccc4Cl)cn3)cs2)C1 [Compound 10, (R)-4-(4-(3-(2-chlorophenyl)ureido)-1H-pyrazol-1-yl)-N-(1-methylpyrrolidin-3-yl)thiophene-2-carboxamide]
- IC50 (JNK3α1; [3]): 85 nM
- R: ratio of IC50 values of JNK1 over JNK3 (JNK1): 60
- IC50 (JNK1; [4]): 5100 nM

Structure (SMILES): [2H]C([2H])([2H])N1CC[C@@H](NC(=O)c2cc(-n3cc(NC(=O)Nc4ccccc4Cl)cn3)cs2)C1 [Compound 11, (R)-4-(4-(3-(2-chlorophenyl)ureido)-1H-pyrazol-1-yl)-N-(1-(methyl-d3)pyrrolidin-3-yl)thiophene-2-carboxamide]
- IC50 (JNK3α1; [3]): 83 nM
- R: ratio of IC50 values of JNK1 over JNK3 (JNK1): 61
- IC50 (JNK1; [4]): 5100 nM

Structure (SMILES): CN1CC[C@H](NC(=O)c2cc(-n3cc(NC(=O)Nc4ccccc4Cl)cn3)cs2)C1 [Compound 12, (S)-4-(4-(3-(2-chlorophenyl)ureido)-1H-pyrazol-1-yl)-N-(1-methylpyrrolidin-3-yl)thiophene-2-carboxamide]
- IC50 (JNK3α1; [3]): 39 nM
- R: ratio of IC50 values of JNK1 over JNK3 (JNK1): 56
- IC50 (JNK1; [4]): 2200 nM
- isoform selectivity against JNK2 vs JNK3 (JNK2): around 40 folds
- R: ratio of IC50 values of JNK2 over JNK3 (JNK2): 39
- IC50 (JNK2): 1510 nM
- MTT cell viability (SHSY5Y cells): 94%
- CYP-450 % inh. 1A2 (CYP1A2): −1%
- CYP-450 % inh. 2C9 (CYP2C9): −9%
- CYP-450 % inh. 2D6 (CYP2D6): 20%
- CYP-450 % inh. 3A4 (CYP3A4): −18%
- Mic. stability t1/2 Human [1]: 54 min
- Mic. stability t1/2 Mouse [2]: 20 min

Structure (SMILES): CC(C)N1CC[C@H](NC(=O)c2cc(-n3cc(NC(=O)Nc4ccccc4Cl)cn3)cs2)C1 [Compound 13, (S)-4-(4-(3-(2-chlorophenyl)ureido)-1H-pyrazol-1-yl)-N-(1-isopropylpyrrolidin-3-yl)thiophene-2-carboxamide]
- IC50 (JNK3α1; [3]): 12 nM
- R: ratio of IC50 values of JNK1 over JNK3 (JNK1): 60
- IC50 (JNK1; [4]): 720 nM

Structure (SMILES): O=C(Nc1cnn(-c2csc(C(=O)N[C@@H]3CCOC3)c2)c1)Nc1ccccc1Cl [Compound 16, (R)-4-(4-(3-(2-chlorophenyl)ureido)-1H-pyrazol-1-yl)-N-(tetrahydrofuran-3-yl)thiophene-2-carboxamide]
- IC50 (JNK3α1; read-out: JNK3 inhibitory activity IC50): 8 nM
- R: ratio of IC50 values of JNK1 over JNK3 (JNK1): 188
- IC50 (JNK1; [4]): 1500 nM
- isoform selectivity against JNK2 vs JNK3 (JNK2): > 250 folds
- R: ratio of IC50 values of JNK2 over JNK3 (JNK2): 253
- IC50 (JNK2): 2020 nM
- MTT cell viability (SHSY5Y cells): 112%
- CYP-450 % inh. 1A2 (CYP1A2): 17%
- CYP-450 % inh. 2C9 (CYP2C9): 38%
- CYP-450 % inh. 2D6 (CYP2D6): 1%
- CYP-450 % inh. 3A4 (CYP3A4): −20%
- Mic. stability t1/2 Human [1]: 33 min
- Mic. stability t1/2 Mouse [2]: 13 min

Structure (SMILES): CC1(NC(=O)c2cc(-n3cc(NC(=O)Nc4ccccc4Cl)cn3)cs2)COC1 [Compound 18, 4-(4-(3-(2-chlorophenyl)ureido)-1H-pyrazol-1-yl)-N-(3-methyloxetan-3-yl)thiophene-2-carboxamide]
- IC50 (JNK3α1; [3]): 45 nM
- R: ratio of IC50 values of JNK1 over JNK3 (JNK1): 73
- IC50 (JNK1; [4]): 3300 nM
- IC50 (p38α): > 20000 nM

Structure (SMILES): CN1CCC(CNC(=O)c2cc(-n3cc(NC(=O)Nc4ccccc4Cl)cn3)cs2)CC1 [Compound 19, 4-(4-(3-(2-chlorophenyl)ureido)-1H-pyrazol-1-yl)-N-((1-methylpiperidin-4-yl)methyl)thiophene-2-carboxamide]
- IC50 (JNK3α1; [3]): 142 nM
- R: ratio of IC50 values of JNK1 over JNK3 (JNK1): 41
- IC50 (JNK1; [4]): 5800 nM
- IC50 (p38α): > 20000 nM

Structure (SMILES): O=C(Nc1cnn(-c2csc(C(=O)NCC3CCNCC3)c2)c1)Nc1ccccc1Cl [Compound 20, 4-(4-(3-(2-chlorophenyl)ureido)-1H-pyrazol-1-yl)-N-(piperidin-4-ylmethyl)thiophene-2-carboxamide]
- IC50 (JNK1; [4]): 6600 nM
- IC50 (p38α): > 20000 nM

Structure (SMILES): CN1CC[C@H](CNC(=O)c2cc(-n3cc(NC(=O)Nc4ccccc4Cl)cn3)cs2)C1 [Compound 21, (R)-4-(4-(3-(2-chlorophenyl)ureido)-1H-pyrazol-1-yl)-N-((1-methylpyrrolidin-3-yl)methyl)thiophene-2-carboxamide]
- IC50 (JNK3α1; [3]): 222 nM
- R: ratio of IC50 values of JNK1 over JNK3 (JNK1): 46
- IC50 (JNK1; [4]): 10300 nM

Structure (SMILES): O=C(Nc1cnn(-c2csc(C(=O)NC[C@H]3CCOC3)c2)c1)Nc1ccccc1Cl [Compound 22, (R)-4-(4-(3-(2-chlorophenyl)ureido)-1H-pyrazol-1-yl)-N-((tetrahydrofuran-3-yl)methyl)thiophene-2-carboxamide]
- IC50 (JNK3α1; [3]): 71 nM
- R: ratio of IC50 values of JNK1 over JNK3 (JNK1): 31
- IC50 (JNK1; [4]): 2200 nM

Structure (SMILES): CN1CCC[C@H]1CNC(=O)c1cc(-n2cc(NC(=O)Nc3ccccc3Cl)cn2)cs1 [Compound 23, (S)-4-(4-(3-(2-chlorophenyl)ureido)-1H-pyrazol-1-yl)-N-((1-methylpyrrolidin-2-yl)methyl)thiophene-2-carboxamide]
- IC50 (JNK3α1; [3]): 85 nM
- R: ratio of IC50 values of JNK1 over JNK3 (JNK1): 107
- IC50 (JNK1; [4]): 9100 nM
